# Experiments:
# [1] = molecular target: Cyclin-dependent kinase 3 (Homo sapiens, UniProt Q00526); experiment: Inhibition of recombinant CDK3 (unknown origin)
# Cathepsin G = molecular target: T1, Cathepsin G (Homo sapiens, UniProt P08311); experiment: Inhibition of human Cathepsin G
# T1 sequence (P08311 whole entry): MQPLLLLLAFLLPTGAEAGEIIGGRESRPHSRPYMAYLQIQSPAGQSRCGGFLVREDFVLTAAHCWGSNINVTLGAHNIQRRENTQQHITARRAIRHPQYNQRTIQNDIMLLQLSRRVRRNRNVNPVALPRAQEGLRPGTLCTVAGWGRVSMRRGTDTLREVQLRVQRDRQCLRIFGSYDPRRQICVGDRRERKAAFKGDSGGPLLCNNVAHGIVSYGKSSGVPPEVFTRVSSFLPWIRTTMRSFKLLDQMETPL
# [2] = molecular target: T2, Tyrosine-protein kinase JAK3 (Homo sapiens, UniProt P52333); experiment: Inhibition of JAK3 (unknown origin)
# T2 sequence (P52333 whole entry): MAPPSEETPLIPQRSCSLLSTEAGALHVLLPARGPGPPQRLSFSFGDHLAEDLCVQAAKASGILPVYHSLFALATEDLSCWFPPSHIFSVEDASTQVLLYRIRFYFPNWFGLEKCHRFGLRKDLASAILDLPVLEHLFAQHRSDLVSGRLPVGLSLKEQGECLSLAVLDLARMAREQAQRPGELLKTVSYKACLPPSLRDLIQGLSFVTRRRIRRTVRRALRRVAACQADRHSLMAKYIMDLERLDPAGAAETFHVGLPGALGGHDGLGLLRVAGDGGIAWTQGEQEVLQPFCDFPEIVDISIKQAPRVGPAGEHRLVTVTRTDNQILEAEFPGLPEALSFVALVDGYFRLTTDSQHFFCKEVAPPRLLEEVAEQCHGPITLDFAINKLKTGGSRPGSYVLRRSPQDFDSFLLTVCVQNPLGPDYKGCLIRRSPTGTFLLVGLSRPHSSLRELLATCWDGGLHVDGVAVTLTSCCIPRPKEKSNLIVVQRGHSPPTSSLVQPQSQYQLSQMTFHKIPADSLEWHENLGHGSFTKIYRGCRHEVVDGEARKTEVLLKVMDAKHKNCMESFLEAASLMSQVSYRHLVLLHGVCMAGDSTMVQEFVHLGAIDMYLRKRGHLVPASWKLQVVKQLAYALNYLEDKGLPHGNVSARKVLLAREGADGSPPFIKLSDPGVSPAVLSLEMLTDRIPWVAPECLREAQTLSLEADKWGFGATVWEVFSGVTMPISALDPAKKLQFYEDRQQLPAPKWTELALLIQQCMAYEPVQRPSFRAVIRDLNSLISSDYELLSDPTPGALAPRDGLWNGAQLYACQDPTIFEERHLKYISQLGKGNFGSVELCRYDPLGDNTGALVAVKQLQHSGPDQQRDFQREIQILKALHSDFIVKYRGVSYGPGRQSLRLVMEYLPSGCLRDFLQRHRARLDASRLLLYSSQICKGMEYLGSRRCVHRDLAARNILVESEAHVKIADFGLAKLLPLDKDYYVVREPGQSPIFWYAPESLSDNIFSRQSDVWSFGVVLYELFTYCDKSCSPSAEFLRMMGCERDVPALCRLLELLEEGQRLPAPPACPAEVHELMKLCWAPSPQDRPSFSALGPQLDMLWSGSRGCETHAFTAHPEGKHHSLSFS
# [3] = molecular target: Epidermal growth factor receptor (Homo sapiens, UniProt P00533); experiment: Inhibition of EGFR (unknown origin) by ADP-Glo kinase assay
# Sequence of Epidermal growth factor receptor (P00533 whole entry, the tested form may be a part): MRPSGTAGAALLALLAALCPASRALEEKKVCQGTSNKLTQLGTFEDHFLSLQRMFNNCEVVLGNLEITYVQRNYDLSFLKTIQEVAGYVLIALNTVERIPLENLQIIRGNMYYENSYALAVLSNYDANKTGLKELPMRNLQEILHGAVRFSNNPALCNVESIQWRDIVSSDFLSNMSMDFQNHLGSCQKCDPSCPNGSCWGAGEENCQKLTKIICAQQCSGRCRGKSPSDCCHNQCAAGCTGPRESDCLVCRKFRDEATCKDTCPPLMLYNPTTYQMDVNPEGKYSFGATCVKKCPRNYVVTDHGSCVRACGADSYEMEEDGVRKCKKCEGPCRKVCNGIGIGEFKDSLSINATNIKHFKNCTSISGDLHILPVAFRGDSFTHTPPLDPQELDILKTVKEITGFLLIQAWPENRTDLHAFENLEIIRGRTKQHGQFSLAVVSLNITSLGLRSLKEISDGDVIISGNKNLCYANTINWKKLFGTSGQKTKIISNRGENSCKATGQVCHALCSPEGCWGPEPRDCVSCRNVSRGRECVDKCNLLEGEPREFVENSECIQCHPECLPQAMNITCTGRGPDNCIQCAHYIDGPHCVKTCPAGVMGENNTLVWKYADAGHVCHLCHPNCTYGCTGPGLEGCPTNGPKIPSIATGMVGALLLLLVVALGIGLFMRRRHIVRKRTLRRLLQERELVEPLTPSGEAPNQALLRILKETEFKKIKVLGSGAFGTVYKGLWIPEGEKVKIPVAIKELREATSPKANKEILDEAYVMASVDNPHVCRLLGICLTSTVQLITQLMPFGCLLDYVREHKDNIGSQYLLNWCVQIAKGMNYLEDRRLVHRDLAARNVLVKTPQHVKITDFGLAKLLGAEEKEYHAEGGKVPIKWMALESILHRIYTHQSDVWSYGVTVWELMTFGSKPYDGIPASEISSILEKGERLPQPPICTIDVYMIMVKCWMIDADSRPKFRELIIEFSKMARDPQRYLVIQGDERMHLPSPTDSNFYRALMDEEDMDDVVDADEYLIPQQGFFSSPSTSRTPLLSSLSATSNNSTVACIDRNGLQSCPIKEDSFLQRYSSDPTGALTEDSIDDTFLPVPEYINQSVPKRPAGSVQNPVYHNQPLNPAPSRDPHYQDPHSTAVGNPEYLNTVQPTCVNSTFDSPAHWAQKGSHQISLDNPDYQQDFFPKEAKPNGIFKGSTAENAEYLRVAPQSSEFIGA
# [4] = molecular target: Tyrosine-protein kinase ABL1 (Homo sapiens, UniProt P00519); experiment: Inhibition of 6His/SUMO- tagged human ABL1 (229 to 500 residues) extracted from Escherichia coli BL21 (DE3)
# Sequence of Tyrosine-protein kinase ABL1 (P00519 whole entry, the tested form may be a part): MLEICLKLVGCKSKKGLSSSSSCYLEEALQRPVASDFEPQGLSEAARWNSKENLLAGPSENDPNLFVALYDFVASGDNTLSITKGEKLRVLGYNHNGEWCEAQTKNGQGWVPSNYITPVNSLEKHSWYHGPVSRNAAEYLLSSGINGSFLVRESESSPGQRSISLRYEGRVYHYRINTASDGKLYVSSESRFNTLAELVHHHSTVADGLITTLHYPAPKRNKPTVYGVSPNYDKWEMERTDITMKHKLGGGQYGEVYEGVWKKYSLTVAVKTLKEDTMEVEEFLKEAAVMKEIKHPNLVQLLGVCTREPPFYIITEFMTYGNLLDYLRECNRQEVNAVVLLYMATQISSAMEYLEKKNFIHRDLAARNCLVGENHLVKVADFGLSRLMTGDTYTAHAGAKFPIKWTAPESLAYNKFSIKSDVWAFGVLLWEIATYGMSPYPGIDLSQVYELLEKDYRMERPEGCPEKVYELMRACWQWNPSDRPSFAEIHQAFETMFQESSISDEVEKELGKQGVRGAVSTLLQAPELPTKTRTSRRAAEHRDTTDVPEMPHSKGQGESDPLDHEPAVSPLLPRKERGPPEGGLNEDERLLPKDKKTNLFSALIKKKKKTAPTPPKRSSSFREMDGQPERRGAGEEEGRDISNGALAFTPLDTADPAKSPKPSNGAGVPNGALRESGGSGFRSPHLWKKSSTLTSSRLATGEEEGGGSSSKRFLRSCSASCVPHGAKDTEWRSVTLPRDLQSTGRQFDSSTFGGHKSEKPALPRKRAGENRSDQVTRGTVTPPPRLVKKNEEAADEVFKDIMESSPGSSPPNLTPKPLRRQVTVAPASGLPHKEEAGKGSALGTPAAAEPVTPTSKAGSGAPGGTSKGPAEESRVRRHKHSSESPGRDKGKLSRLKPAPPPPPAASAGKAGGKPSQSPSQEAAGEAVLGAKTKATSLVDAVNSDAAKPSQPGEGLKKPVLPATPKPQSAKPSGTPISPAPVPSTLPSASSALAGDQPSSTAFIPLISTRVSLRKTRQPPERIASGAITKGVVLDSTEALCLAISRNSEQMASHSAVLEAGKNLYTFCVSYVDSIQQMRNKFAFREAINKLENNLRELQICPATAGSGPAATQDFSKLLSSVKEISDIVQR
# [5] = molecular target: Mast/stem cell growth factor receptor Kit (Homo sapiens, UniProt P10721); experiment: Inhibition of c-KIT (unknown origin)
# Sequence of Mast/stem cell growth factor receptor Kit (P10721 whole entry): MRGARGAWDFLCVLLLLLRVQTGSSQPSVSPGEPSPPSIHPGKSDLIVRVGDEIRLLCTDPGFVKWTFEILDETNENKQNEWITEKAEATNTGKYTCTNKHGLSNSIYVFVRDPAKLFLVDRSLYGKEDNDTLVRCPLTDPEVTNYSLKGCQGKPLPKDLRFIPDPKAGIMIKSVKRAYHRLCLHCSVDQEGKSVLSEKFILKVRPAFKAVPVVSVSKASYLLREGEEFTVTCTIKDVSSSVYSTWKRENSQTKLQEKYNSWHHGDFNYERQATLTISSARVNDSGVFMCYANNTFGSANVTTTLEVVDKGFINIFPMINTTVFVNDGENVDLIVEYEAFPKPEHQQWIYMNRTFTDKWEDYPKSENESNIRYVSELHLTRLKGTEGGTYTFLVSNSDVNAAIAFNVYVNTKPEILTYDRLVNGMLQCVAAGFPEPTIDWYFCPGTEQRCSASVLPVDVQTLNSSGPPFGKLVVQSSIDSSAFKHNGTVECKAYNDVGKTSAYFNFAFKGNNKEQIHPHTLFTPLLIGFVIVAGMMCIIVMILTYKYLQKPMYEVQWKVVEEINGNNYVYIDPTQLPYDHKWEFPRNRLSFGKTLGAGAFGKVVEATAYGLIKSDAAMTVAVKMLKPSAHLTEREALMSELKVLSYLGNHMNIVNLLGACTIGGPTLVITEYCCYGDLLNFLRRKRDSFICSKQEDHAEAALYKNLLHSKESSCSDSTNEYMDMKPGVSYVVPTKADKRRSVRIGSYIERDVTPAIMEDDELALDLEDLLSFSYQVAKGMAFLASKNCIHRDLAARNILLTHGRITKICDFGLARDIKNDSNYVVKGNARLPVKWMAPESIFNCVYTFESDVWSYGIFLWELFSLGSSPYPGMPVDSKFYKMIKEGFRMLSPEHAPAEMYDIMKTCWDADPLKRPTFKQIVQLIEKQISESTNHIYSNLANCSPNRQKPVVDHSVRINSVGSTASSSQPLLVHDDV
# SRSF protein kinase 1 = SRSF protein kinase 1 (Homo sapiens, UniProt Q96SB4); experiment: Inhibition of SRPK1 (unknown origin)
# Sequence of SRSF protein kinase 1 (Q96SB4 whole entry): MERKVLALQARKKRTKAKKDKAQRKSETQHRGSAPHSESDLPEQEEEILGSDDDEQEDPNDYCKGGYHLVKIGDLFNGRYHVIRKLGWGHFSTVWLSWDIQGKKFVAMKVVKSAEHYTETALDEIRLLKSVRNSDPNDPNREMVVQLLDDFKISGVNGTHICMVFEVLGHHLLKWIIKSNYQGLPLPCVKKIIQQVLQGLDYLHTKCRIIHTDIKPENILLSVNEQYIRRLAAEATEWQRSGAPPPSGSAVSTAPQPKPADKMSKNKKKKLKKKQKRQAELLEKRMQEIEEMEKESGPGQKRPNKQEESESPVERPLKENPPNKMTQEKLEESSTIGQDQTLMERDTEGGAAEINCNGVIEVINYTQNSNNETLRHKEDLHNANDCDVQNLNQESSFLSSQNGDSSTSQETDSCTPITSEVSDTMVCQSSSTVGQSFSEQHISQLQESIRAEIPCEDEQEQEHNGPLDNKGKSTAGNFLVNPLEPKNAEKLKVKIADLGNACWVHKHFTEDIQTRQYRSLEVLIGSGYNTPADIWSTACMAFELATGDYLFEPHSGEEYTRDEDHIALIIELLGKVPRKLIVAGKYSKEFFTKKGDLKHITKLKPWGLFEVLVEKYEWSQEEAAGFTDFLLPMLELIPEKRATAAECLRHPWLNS
# Neutrophil elastase = molecular target: T3, Neutrophil elastase (Homo sapiens, UniProt P08246); experiment: Inhibition of human neutrophil elastase
# T3 sequence (P08246 whole entry): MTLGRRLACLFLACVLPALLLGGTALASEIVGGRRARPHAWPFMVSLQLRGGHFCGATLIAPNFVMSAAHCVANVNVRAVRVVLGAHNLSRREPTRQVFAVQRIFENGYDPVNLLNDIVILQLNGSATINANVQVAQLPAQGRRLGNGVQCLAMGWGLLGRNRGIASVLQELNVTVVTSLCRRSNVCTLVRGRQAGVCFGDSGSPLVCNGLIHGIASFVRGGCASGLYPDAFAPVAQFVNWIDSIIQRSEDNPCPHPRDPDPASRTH
# Sequence of Cyclin-dependent kinase 3 (Q00526 whole entry): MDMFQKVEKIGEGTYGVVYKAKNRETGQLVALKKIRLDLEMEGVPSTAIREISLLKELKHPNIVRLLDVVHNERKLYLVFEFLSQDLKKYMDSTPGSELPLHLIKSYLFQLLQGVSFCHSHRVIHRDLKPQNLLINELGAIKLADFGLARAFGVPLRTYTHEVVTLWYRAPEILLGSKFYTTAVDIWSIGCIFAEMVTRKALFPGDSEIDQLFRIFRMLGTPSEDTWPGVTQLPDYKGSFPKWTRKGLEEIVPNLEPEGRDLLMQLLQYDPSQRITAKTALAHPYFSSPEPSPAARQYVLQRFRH
compound,measurement,setting,value
CN(C)C/C=C/C(=O)Nc1ccc(C(=O)N2CCCC(Nc3ncc(Cl)c(-c4c[nH]c5ccccc45)n3)C2)cc1 (centres undefined),IC50,[1],0.069 µM
O=S(=O)(F)Oc1ccccc1S(=O)(=O)F,IC50,Cathepsin G,> 0.2 µM
CC#CC1Nc2cc(Nc3nccc(C4CN(C)c5ccccc54)n3)ccc2C(C)(C)O1 (centres undefined),IC50,[2],0.06 µM
C#Cc1cc(Nc2ncnc3cc(OCCOC)c(OCCOC)cc23)ccc1C=O,IC50,[3],0.0482 µM
C#Cc1cc(OC)c(-c2ccc3nc(NC(=O)NCCO)sc3c2)cc1C=O,IC50,[4],0.0024 µM
CC#CC1=Nc2cc(NC(=O)Cc3ncc(Oc4ccnc5cc(OC)ccc45)cc3OC)ccc2C(C)(C)O1,IC50,[5],2.08 µM
CCc1cc2c(cc1-c1cc[nH]n1)C(C)(C)C1Cc3cc(C#N)ccc3C1C2=O (centres undefined),IC50,SRSF protein kinase 1,0.00115 µM
O=S(=O)(F)c1ccccc1S(=O)(=O)F,IC50,Cathepsin G,0.19 µM
same,IC50,Neutrophil elastase,3.3 µM

# Reference: ChEMBL document CHEMBL6109048, “Innovative design and potential applications of covalent strategy in drug discovery” (Eur J Med Chem, 2025)
